# Values of other authors as cited in patent publication US20180272346A1, “MODULAR ORGAN MICROPHYSIOLOGICAL SYSTEM WITH MICROBIOME” (Massachusetts Institute of Technology, priority 2017, published 2018).
# Assays:
# [1] = test system: 7-way MPS platform (gut, liver and other MPSs)
# [2] = test system: immune-competent liver MPS (hepatocytes and Kupffer cells)
# [3] = oral, in vivo; read-out: maximum measured plasma concentration, Cmax
# [4] = test system: human hepatocytes and kupffer cells co-culture
# [5] = test system: immune-competent gut-liver interacted MPS; conditions: tolcapone added to gut MPS ("oral")
# [6] = test system: immune-competent gut MPS (Caco2, HT29-MTX, dendritic cells)
molecule,measurement,setting,value
"O=C(O)Cc1ccccc1Nc1c(Cl)cccc1Cl [Diclofenac, diclofenac]",absorption and distribution across MPS compartments,[1],absorbed across the gut epithelial barrier
same,unbound intrinsic clearance (CL_int(u)),"[1]; diclofenac added to apical side of gut MPS, estimated",13.90 µL/min
same,fraction of clearance towards formation of the 4-OH-DCF metabolite,[1]; estimated,approximately 19%
same,cell death,[2],minimal
same,Cmax,[3],2 to 6 µM
same,function and cellular death,endometrium MPS,loss of function correlating with cellular death
"C[C@]12CCC(=O)C=C1CC[C@@H]1[C@@H]2[C@@H](O)C[C@@]2(C)[C@H]1CC[C@]2(O)C(=O)CO [Hydrocortisone (cortisol), Hydrocortisone]",differentiated function,[4]; cocultured liver MPS,enhanced
same,inflammatory response,[4]; cocultured liver MPS,suppressed
same,CYP450 activity,[4]; cultures up to 21 days,sensitive to hydrocortisone levels
Cc1ccc(C(=O)c2cc(O)c(O)c([N+](=O)[O-])c2)cc1 [Tolcapone],cell death,[2],caused cell death
same,mitochondrial activity,[2],decreased
same,MPS-specific cell death markers,[5],suffered from MPS-specific cell death markers
same,generic cell death marker,[5],insensitive
same,gut and liver MPS function,[5],MPS-specific loss of function
same,cell death,[6],severe cellular death
same,epithelial function,[6],complete loss of epithelial function
same,function and cellular death,endometrium MPS,loss of function correlating with cellular death
Lipopolysaccharide [Lipopolysaccharide (LPS)],lowest LPS stimulus the co-cultures were responsive to,[4]; hepatocyte-Kupffer co-culture,0.01 µg/mL
